Test results as given in patent publication US20200239530A1, “COMPOUNDS AND METHODS OF MODULATING PROTEIN DEGRADATION” (Vividion Therapeutics, Inc., priority 2017, published 2020).
Read-outs that look alike come from different tables or passages of the source.

What was measured:
Type in all cases: binding
[1] = target: T1, cysteine residue illustrated in Table 1A or Table 2A (Homo sapiens, UniProt P0C7V8); test: Competitive cysteine profiling of cell lysate with desthiobiotin iodoacetamide probe (96-well sample prep); settings: UniProt P0C7V8; 500 uM
T1 construct: Cells were resuspended in cold PBS on ice and sonicated with a probe sonicator to achieve lysis; endogenous in cells
Protocol: (§1) In some embodiments, the solution sample (e.g., cell sample, cell lysate sample, or comprising isolated proteins) is incubated with a compound of Formula (I) for analysis of protein-probe interactions. In some instances, the solution sample (e.g., cell sample, cell lysate sample, or comprising isolated proteins) is further incubated in the presence of an additional compound probe prior to addition of the compound of Formula (I). […] In such instances, the solution sample is incubated with a probe and a ligand for competitive protein profiling analysis.
(§2) The following 96-well sample prep protocol was used for sample preparation.
(§3) Cells were resuspended in cold PBS on ice and sonicated with a probe sonicator to achieve lysis. 200 μL of lysate containing 5 mg/ml proteome was treated with 2 μL of 100× compound stock in a 2-mL deep-well plate. The treated lysate was subsequently incubate at 25° C. for 1 hr with shaking at 600 rpm. The treated lysate was further incubated with 2 μL of 10 mM desthiobiotin iodoacetamide probe at 25° C. for 1 hr with shaking at 600 rpm. Next, the lysate was further treat with 20 μL of solution of PBS containing 11 mM MgSO4 and 2.5% Turbonuclease stock and incubated at 25° C. for 20 minutes with shaking at 600 rpm. 1.7 mL ice-cold acetone was added to each well and incubated at −20° C. for 2 hr, followed by max speed (4200 rpm) spin for 45 min. Acetone was then decanted and the plates were blotted to remove acetone. The plates were then dried in open air for 20 minutes. After drying, the plates were then covered with foil seal and stored at −80° C. overnight.
(§4) The next day, samples were re-suspended in 90 μL of solution of 9M urea, 50 mM ammonium bicarbonate and 10 mM DTT by incubating at 65C for 20 min with shaking at 1500 rpm. Next, samples were cooled to 37° C. and then 10 μL of 500 mM iodoacetamide solution (92.48 mg/ml) was added. The samples were then incubated at 37° C. for 30 min with shaking at 600 rpm.
(§5) ZEBA desalting plates were equilibrated 4 times using 250 μL of 2M urea, 50 mM ammonium bicarbonate solution followed by centrifugation at 1500 rpm for 2 minutes. After equilibration was complete, samples were applied to ZEBA desalting plate and spin at 1500 rpm for 2 min on top of 1 mL 96-well deep-well collection plate to buffer exchange samples. 4 μL of solution containing 25 mM CaCl2 and 0.25 mg/mL trypsin was added to the plate and the plate was then incubated at 37° C. for 2 hrs with shaking at 600 rpm. 300 μL of solution containing 5% high-capacity streptavidin agarose slurry in 25 mM Tris-HCl pH 7.5, 150 mM NaCl, and 0.1% NP-40 then added. The plate was incubated at 25° C. for 2 hrs with shaking at 600 rpm. Samples were transferred to 25 μm filter plate and spin at 1000 rpm for 2 min. Samples were then washed 3 times with 0.75 mL of wash buffer (25 mM Tris-HCl pH 7.5, 150 mM NaCl, and 0.1% NP-40) followed by washing 3 times with 0.75 mL PBS, and then 4 times with 0.75 mL water. After the washing step, samples were eluted into polypropylene 96-well plate by addition of 250 µL of 50% MeCN/water, 0.1% formic acid and allowed to gravity drip for 10 min, followed by centrifugation at 1000 rpm for 2 min. Speedvac was used to dry the plates at about 45° C. for […]. Then the plates were covered with foil seal and stored at −20° C.
(§6) Samples were resuspended by addition of 20 μl of 12.5% ACN, 0.1% formic acid solution, covered with foil seal, and incubated at 42° C. for 10 minutes with shaking at 600 rpm. Then add 30 μL of 0.1% formic acid solution was added and the plate was covered and incubated at 42° C. for 10 minutes with shaking at 600 rpm. Seal plate was then sealed with a 96-well silicon mat for analysis.

[2] = target: T2, cysteine residue illustrated in Table 1A or Table 2A (Homo sapiens, UniProt P40337); test: as above; settings: UniProt P40337
T2 construct: Cells were resuspended in cold PBS on ice and sonicated with a probe sonicator to achieve lysis; endogenous in cells
Protocol: as §1, §2, §3, §4, §5, §6

[3] = target: T3, cysteine residue illustrated in Table 1A or Table 2A (Homo sapiens, UniProt Q7Z4G1); test: as above; settings: UniProt Q7Z4G1; 100 uM
T3 construct: Cells were resuspended in cold PBS on ice and sonicated with a probe sonicator to achieve lysis; endogenous in cells
Protocol: as §1, §2, §3, §4, §5, §6

[4] = target: T4, cysteine residue illustrated in Table 1A or Table 2A (Homo sapiens, UniProt Q86X83); test: as above; settings: UniProt Q86X83
T4 construct: Cells were resuspended in cold PBS on ice and sonicated with a probe sonicator to achieve lysis; endogenous in cells
Protocol: as §1, §2, §3, §4, §5, §6

[5] = target: T5, cysteine residue illustrated in Table 1A or Table 2A (Homo sapiens, UniProt Q9GZQ3); test: as above; settings: UniProt Q9GZQ3; 500 uM
T5 construct: Cells were resuspended in cold PBS on ice and sonicated with a probe sonicator to achieve lysis; endogenous in cells
Protocol: as §1, §2, §3, §4, §5, §6

Q8NEG5 = target: T6, Q8NEG5 (Homo sapiens, UniProt Q8NEG5); test: Cysteine liganding, probe competition (Table 2B)
T6 construct: endogenous in cells; whole-cell lysate
T6 sequence (Q8NEG5 1-633): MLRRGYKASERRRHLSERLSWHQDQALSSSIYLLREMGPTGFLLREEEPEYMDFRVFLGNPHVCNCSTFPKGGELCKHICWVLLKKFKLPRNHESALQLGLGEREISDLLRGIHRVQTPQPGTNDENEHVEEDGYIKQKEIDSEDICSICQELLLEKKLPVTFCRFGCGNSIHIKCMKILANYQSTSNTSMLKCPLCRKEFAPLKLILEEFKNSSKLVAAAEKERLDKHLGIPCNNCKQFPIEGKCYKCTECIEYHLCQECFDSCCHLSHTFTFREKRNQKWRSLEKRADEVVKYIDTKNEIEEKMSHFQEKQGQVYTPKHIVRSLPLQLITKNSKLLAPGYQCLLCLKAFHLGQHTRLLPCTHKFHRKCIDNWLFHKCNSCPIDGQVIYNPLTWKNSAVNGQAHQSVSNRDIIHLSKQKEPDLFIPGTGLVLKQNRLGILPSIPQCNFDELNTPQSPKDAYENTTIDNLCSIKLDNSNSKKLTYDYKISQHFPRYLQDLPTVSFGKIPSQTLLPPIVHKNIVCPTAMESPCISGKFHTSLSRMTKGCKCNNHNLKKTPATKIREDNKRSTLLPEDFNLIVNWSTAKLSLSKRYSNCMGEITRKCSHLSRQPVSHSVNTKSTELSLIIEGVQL
Source text: as §2

In the case of COc1ccc2c(c1)CCCN2C(=O)CCl [KB02], the “KB02_500 uM_percent_inhibition” value [1] is reported as 55%, the “KB02_100 uM_percent_inhibition” value ([2]; KB02 100 uM) is reported as 12% and the “KB02_100 uM_percent_inhibition” value [3] is reported as 22%. The “KB02_100 uM_percent_inhibition” value ([4]; 100 uM) was 31%, the “KB02_500 uM_percent_inhibition” value ([4]; 500 uM) was 83% and the “KB02_500 uM_percent_inhibition” value [5] was 11%. The inhibition at 500 µM (Q8NEG5; read-out: KB02_500 uM_percent_inhibition) was 35%.
With C=CC(=O)N(c1ccccc1)c1ccc(Br)cc1 [KB05] the “KB05_500 uM_percent_inhibition” value [1] was 63%, the “KB05_100 uM_percent_inhibition” value ([2]; KB05 100 uM) was 15% and the “KB05_500 uM_percent_inhibition” value ([2]; KB05 500 uM) was 32%. The “KB05_100 uM_percent_inhibition” value [3] was 33%, the “KB05_100 uM_percent_inhibition” value ([4]; 100 uM) was 38% and the “KB05_500 uM_percent_inhibition” value ([4]; 500 uM) was 78%. For the same compound, the “KB05_500 uM_percent_inhibition” value [5] was 56% and the inhibition at 500 µM (Q8NEG5; read-out: KB05_500 uM_percent_inhibition) was 16%.
With O=C(CCl)Nc1cc(C(F)(F)F)cc(C(F)(F)F)c1 [KBO3] the “KB03_500 uM_percent_inhibition” value [1] was 41%, the “KB03_100 uM_percent_inhibition” value ([2]; KB03 100 uM) was 19% and the “KB03_100 uM_percent_inhibition” value [3] was 33%. For the same compound, the “KB03_100 uM_percent_inhibition” value ([4]; 100 uM) was 35%, the “KB03_500 uM_percent_inhibition” value ([4]; 500 uM) was 72% and the “KB03_500 uM_percent_inhibition” value [5] was 24%. For the same compound, the “KB03_500 uM_percent_inhibition” value (Q8NEG5; 500 uM) was 8%.
